According to ChEMBL document CHEMBL2331351, “5-Oxo-ETE receptor antagonists” (J Med Chem, 2013):
Activity calls are given as the source filed them. No cut-off for these calls is given here.

Legend:
Assay type in all cases: functional
Oxoeicosanoid receptor 1 [1] = target: T1, Oxoeicosanoid receptor 1 (Homo sapiens, UniProt Q8TDS5); assay: Agonist activity at OXE receptor in human neutrophils assessed as 5-oxo-ETE-induced Ca2+ mobilization incubated for 2 mins prior to 5-oxo-ETE addition measured after 1 min by spectrofluorimetric analysis
T1 sequence (Q8TDS5 whole entry): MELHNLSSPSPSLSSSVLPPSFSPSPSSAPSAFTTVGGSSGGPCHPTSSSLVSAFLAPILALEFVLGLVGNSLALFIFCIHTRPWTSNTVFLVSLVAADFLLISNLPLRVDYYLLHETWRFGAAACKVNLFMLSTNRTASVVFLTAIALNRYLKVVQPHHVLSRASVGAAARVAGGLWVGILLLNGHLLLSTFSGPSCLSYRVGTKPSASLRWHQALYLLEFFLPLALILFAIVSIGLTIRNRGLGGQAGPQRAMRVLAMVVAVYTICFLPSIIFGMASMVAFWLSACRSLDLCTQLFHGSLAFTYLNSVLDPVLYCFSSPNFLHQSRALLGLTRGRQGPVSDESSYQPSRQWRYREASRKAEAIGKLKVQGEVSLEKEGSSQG

Oxoeicosanoid receptor 1 [2] = target: T1, Oxoeicosanoid receptor 1; assay: Antagonist activity at OXE receptor in human neutrophils assessed as 5-oxo-ETE-induced Ca2+ mobilization incubated for 2 mins prior to 5-oxo-ETE addition measured after 1 min by spectrofluorimetric analysis
Oxoeicosanoid receptor 1 [3] = target: T1, Oxoeicosanoid receptor 1; assay: Antagonist activity at OXE receptor in human neutrophils assessed as 5-oxo-ETE-induced Ca2+ mobilization incubated for 2 mins prior to 5-oxo-ETE addition measured at 30 uM after 1 min by spectrofluorimetric analysis
Oxoeicosanoid receptor 1 [4] = target: T1, Oxoeicosanoid receptor 1; assay: Antagonist activity at OXE receptor in human neutrophils assessed as induction of Ca2+ mobilization at 30 uM after 2 mins by spectrofluorimetric analysis
Oxoeicosanoid receptor 1 [5] = target: T1, Oxoeicosanoid receptor 1; assay: Antagonist activity at OXE receptor in human neutrophils assessed as 5-oxo-ETE-induced Ca2+ mobilization incubated for 2 mins prior to 5-oxo-ETE addition measured at 1 uM after 1 min by spectrofluorimetric analysis
Oxoeicosanoid receptor 1 [6] = target: T1, Oxoeicosanoid receptor 1; assay: Antagonist activity at OXE receptor in human neutrophils assessed as LTB4-induced Ca2+ mobilization incubated for 2 mins prior to 5-oxo-ETE addition measured after 1 min by spectrofluorimetric analysis

Row | Structure (SMILES) | Activity (Oxoeicosanoid receptor 1 [1]) | IC50 (Oxoeicosanoid receptor 1 [2]) | also measured
1 | O=C(O)CCCC(=O)/C=C/c1cccc2ccccc12 | inactive | – | –
2 | CCCCCCc1ccc2ccn(C(=O)CCCC(=O)O)c2c1 | – | 18 µM | –
3 | CCCCCCc1cn(C(=O)CCCC(=O)O)c2ccccc12 | – | 20.7 µM | –
4 | O=C(O)CCCC(=O)n1ccc2ccccc21 | inactive | > 30 µM | Activity (Oxoeicosanoid receptor 1 [3]): inactive; Activity (Oxoeicosanoid receptor 1 [4]): inactive
5 | CCCCCCc1cccc2ccn(C(=O)CCCC(=O)O)c12 | – | 11.8 µM | –
6 | O=C(O)CCCC(=O)/C=C/c1ccccc1 | inactive | – | –
7 | CCCCCCc1ccc2c(ccn2C(=O)CCCC(=O)O)c1 | – | 17.7 µM | –
8 | O=C(O)CCCc1cc2ccccc2o1 | inactive | – | –
9 | CCCCCCc1cc2ccccc2n1C(=O)CCCC(=O)O | – | 1.55 µM | Activity (Oxoeicosanoid receptor 1 [5]): Active; Activity (Oxoeicosanoid receptor 1 [6]): inactive
